Legend:
[1] = target: T1, human serum albumin (Homo sapiens, UniProt P02768); test: Literature HSA binding of the reference substances used to calibrate the HSA column; conditions: logarithmic K of human serum albumin binding, from the literature HSA%
Method: The mobile phase was freshly prepared for each experiment and only used for one day. The column was kept at room temperature and each run was stopped after detection of the signal to reduce the acquisition time. All substances were dissolved in a 0.5mg/ml concentration in 50% 2-Propanol and 50% 50mM pH 6.9 ammonium acetate buffer. […] All nine reference substances were injected consecutively to establish a non-linear regression with OriginPro 2016G. […] Table 1: Reference substances used for the calibration of the HSA-column.

[2] = target: T1, human serum albumin; conditions: literature value of human serum albumin binding (Valko et al. or Yamazaki et al.); cited from earlier work

T1 sequence (P02768 25-609): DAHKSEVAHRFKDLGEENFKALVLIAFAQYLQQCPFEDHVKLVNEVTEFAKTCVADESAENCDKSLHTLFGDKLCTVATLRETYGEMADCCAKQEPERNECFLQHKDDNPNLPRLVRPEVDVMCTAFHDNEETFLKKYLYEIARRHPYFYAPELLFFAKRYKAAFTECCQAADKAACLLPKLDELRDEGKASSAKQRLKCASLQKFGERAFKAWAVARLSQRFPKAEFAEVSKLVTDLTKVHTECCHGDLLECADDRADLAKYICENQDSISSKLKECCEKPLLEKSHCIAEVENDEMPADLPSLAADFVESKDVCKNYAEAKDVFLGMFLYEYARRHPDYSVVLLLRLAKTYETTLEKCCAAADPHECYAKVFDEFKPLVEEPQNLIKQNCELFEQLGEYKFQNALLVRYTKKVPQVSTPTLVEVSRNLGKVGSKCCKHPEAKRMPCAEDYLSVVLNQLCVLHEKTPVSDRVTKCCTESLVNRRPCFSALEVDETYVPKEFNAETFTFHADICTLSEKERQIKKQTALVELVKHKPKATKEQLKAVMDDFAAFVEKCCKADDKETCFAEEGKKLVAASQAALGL

| Compound | Log K HSA [1] | Lit. HSA% [2] |
| --- | --- | --- |
| COc1ccc(Cl)cc1C(=O)NCCc1ccc(S(=O)(=O)NC(=O)NC2CCCCC2)cc1 [Glibenclamide] | 1.69 | 99.00% |
| Oc1ccccc1 [Phenol] | -0.59 | 20.69% |
